Experimental findings from patent publication US20120135995A1, “FUNGICIDAL DIPHENYL-SUBSTITUTED PYRIDAZINES” (E.I. Dupont de Nemours and Company, priority 2009, published 2012) are described below.

Structures are written as SMILES.

What all share (assay type): in vivo
One assay concerns Erysiphe graminis. The experiment in a line: Test F: wheat seedlings sprayed, next day inoculated with Erysiphe graminis (wheat powdery mildew), visual disease rating. Conditions: sprayed day before inoculation; for Test F rating (disease control) / pest or weed control at 200 ppm: 200 ppm test suspension; for pest or weed control at 200 ppm / pest or weed control at 40 ppm: Blumeria graminis; for pest or weed control at 40 ppm: 40 ppm test suspension (*). The text has this:
(§1) General protocol for preparing test suspensions for Tests A-F: the test compounds were first dissolved in acetone in an amount equal to 3% of the final volume and then suspended at the desired concentration (in ppm) in acetone and purified water (50/50 mix) containing 250 ppm of the surfactant Trem® 014 (polyhydric alcohol esters). The resulting test suspensions were then used in Tests A-F. Spraying a 200 ppm test suspension to the point of run-off on the test plants was the equivalent of a rate of 500 g/ha. An asterisk “*” next to the rating value indicates a 40 ppm test suspension.
The test suspension was sprayed to the point of run-off on wheat seedlings. The following day the seedlings were inoculated with a spore dust of Erysiphe graminis, (the causal agent of wheat powdery mildew) and incubated in a growth chamber at 20° C. for 8 days, after which time visual disease ratings were made.
(§2) Results for Tests A-F are given in Table A. In the Table, a rating of 100 indicates 100% disease control and a rating of 0 indicates no disease control (relative to the controls). A dash (-) indicates no test results. All results are for 200 ppm except where followed by “*”, which indicates 40 ppm.

Assay [1] relates to Puccinia recondita f. sp. tritici. The experiment in a line: Test E2: wheat seedlings sprayed, next day inoculated with Puccinia recondita f. sp. tritici (wheat leaf rust), visual disease rating. The following applies: sprayed day before inoculation; for Test E2 rating (disease control) / pest or weed control at 200 ppm: 200 ppm test suspension; for pest or weed control at 200 ppm / pest or weed control at 40 ppm: Puccinia recondita; for pest or weed control at 40 ppm: 40 ppm test suspension (*).
Excerpt: as §1
The test suspension was sprayed to the point of run-off on wheat seedlings. The following day the seedlings were inoculated with a spore suspension of Puccinia recondita f. sp. tritici (the causal agent of wheat leaf rust) and incubated in a saturated atmosphere at 20° C. for 24 h, and then moved to a growth chamber at 20° C. for 7 days, after which time visual disease ratings were made.
as §2

A further assay has as its system Septoria nodorum. Kind of assay: Test C: wheat seedlings sprayed, next day inoculated with Septoria nodorum (wheat glume blotch), visual disease rating. Conditions: sprayed day before inoculation; for Test C rating (disease control) / pest or weed control at 200 ppm: 200 ppm test suspension; for pest or weed control at 200 ppm / pest or weed control at 40 ppm: Parastagonospora nodorum; for pest or weed control at 40 ppm: 40 ppm test suspension (*).
Excerpt: as §1
The test suspension was sprayed to the point of run-off on wheat seedlings. The following day the seedlings were inoculated with a spore suspension of Septoria nodorum (the causal agent of wheat glume blotch) and incubated in a saturated atmosphere at 24° C. for 48 h, and then moved to a growth chamber at 20° C. for 6 days, after which time visual disease ratings were made.
as §2

Another assay deals with Alternaria solani. The experiment in a line: Test B: tomato seedlings sprayed, next day inoculated with Alternaria solani (tomato early blight), visual disease rating. The following applies: sprayed day before inoculation; for Test B rating (disease control) / pest or weed control at 200 ppm: 200 ppm test suspension; for pest or weed control at 200 ppm / pest or weed control at 40 ppm: Alternaria solani; for pest or weed control at 40 ppm: 40 ppm test suspension (*).
Excerpt: as §1
The test suspension was sprayed to the point of run-off on tomato seedlings. The following day the seedlings were inoculated with a spore suspension of Alternaria solani (the causal agent of tomato early blight) and incubated in a saturated atmosphere at 27° C. for 48 h, and then moved to a growth chamber at 20° C. for 5 days, after which time visual disease ratings were made.
as §2

A further assay deals with Septoria tritici. Kind of assay: Test D: wheat seedlings sprayed, next day inoculated with Septoria tritici (wheat leaf blotch), visual disease rating. The following applies: sprayed day before inoculation; for Test D rating (disease control) / pest or weed control at 200 ppm: 200 ppm test suspension; for pest or weed control at 200 ppm / pest or weed control at 40 ppm: Zymoseptoria tritici; for pest or weed control at 40 ppm: 40 ppm test suspension (*).
Excerpt: as §1
The test suspension was sprayed to the point of run-off on wheat seedlings. The following day the seedlings were inoculated with a spore suspension of Septoria tritici (the causal agent of wheat leaf blotch) and incubated in saturated atmosphere at 24° C. for 48 h, and then moved to a growth chamber at 20° C. for 19 days, after which time visual disease ratings were made.
as §2

In a further assay the test system is Botrytis cinerea. The experiment in a line: Test A: tomato seedlings sprayed, next day inoculated with Botrytis cinerea (tomato Botrytis), visual disease rating. The following applies: sprayed day before inoculation; for Test A rating (disease control) / pest or weed control at 200 ppm: 200 ppm test suspension; for pest or weed control at 200 ppm / pest or weed control at 40 ppm: Botrytis cinerea; for pest or weed control at 40 ppm: 40 ppm test suspension (*).
Excerpt: as §1
The test suspension was sprayed to the point of run-off on tomato seedlings. The following day the seedlings were inoculated with a spore suspension of Botrytis cinerea (the causal agent of tomato Botrytis) and incubated in saturated atmosphere at 20° C. for 48 h, and then moved to a growth chamber at 24° C. for 3 days, after which time visual disease ratings were made.
as §2

In the case of `COc1cc(OC)cc(-c2c(Cl)nnc(C)c2-c2ccc(Cl)cc2)c1` [Compound 1], the “Test F rating (disease control)” value in the assay on Erysiphe graminis worked out at 0%. The “Test E2 rating (disease control)” value in assay [1] stood at 0%. The “Test C rating (disease control)” value in the assay on Septoria nodorum turned out to be 0%. For the same compound, the “Test B rating (disease control)” value in the assay with Alternaria solani came out at 0%. Besides, the “Test D rating (disease control)” value with Septoria tritici is listed as 0%. Also, the “Test A rating (disease control)” value in the assay on Botrytis cinerea is given as 0%.
Turning to `COc1ccc(-c2c(C)nnc(Cl)c2-c2cc(OC)cc(OC)c2)cc1` [Compound 2], the “Test F rating (disease control)” value with Erysiphe graminis was 26%. Also, the “Test E2 rating (disease control)” value in assay [1] came to 74%. Moreover, the “Test C rating (disease control)” value in the assay with Septoria nodorum worked out at 0%. Further, the “Test B rating (disease control)” value in the assay with Alternaria solani is recorded as 58%. Also, in the assay on Septoria tritici, the “Test D rating (disease control)” value was 62%. The “Test A rating (disease control)” value in the assay with Botrytis cinerea was determined as 95%.
Take `COc1cc(OC)cc(-c2c(Cl)nnc(C)c2-c2ccc(F)cc2F)c1` [Compound 3]: the “Test F rating (disease control)” value in the assay on Erysiphe graminis was 79%. For the same compound, the “Test E2 rating (disease control)” value in assay [1] is recorded as 97%. Further, the “Test C rating (disease control)” value with Septoria nodorum was 0%. The “Test B rating (disease control)” value in the assay with Alternaria solani came out at 31%. Also, in the assay on Septoria tritici, the “Test D rating (disease control)” value worked out at 97%. In addition, the “Test A rating (disease control)” value in the assay with Botrytis cinerea is 91%.
Usually pest or weed control stands for the degree to which the test organism was suppressed or injured, in per cent. Higher therefore signals a strong effect. With `COc1cc(OC)cc(-c2c(Cl)nnc(C)c2-c2c(F)cccc2F)c1` [Compound 4, 3-chloro-4-(3,5-dimethoxyphenyl)-6-methyl-5-(2,6-difluorophenyl)pyridazine], the pest or weed control at 200 ppm in the assay with Erysiphe graminis is 95%; in assay [1], 100%; in the assay with Septoria nodorum, 0%; in the assay on Alternaria solani it was 97%; in the assay on Septoria tritici, 98%; in the assay with Botrytis cinerea it was 95%.
Turning to `COc1cc(OC)cc(-c2cnnc(C)c2-c2c(F)cc(F)cc2F)c1` [Compound 6, 5-(3,5-dimethoxyphenyl)-3-methyl-4-(2,4,6-trifluorophenyl)pyridazine], the pest or weed control at 200 ppm with Erysiphe graminis came to 100%; in assay [1], 100%; with Septoria nodorum, 96%; in the assay with Alternaria solani it was 100%; in the assay with Septoria tritici, 93%; in the assay on Botrytis cinerea, 97%.
Turning to `COc1cc(OC)cc(-c2cnnc(CCl)c2-c2c(F)cc(F)cc2F)c1` [Compound 7, 3-(chloromethyl)-5-(3,5-dimethoxyphenyl)-4-(2,4,6-trifluorophenyl)-pyridazine], the pest or weed control at 200 ppm in the assay with Erysiphe graminis came to 99%; in assay [1] it was 98%; in the assay with Septoria nodorum it was 94%; in the assay on Alternaria solani, 26%; with Septoria tritici, 96%; with Botrytis cinerea it was 91%.
For the compound `COc1cc(OC)cc(-c2c(C)nnc(Cl)c2-c2c(F)cc(F)cc2F)c1` [Compound 8, 3-chloro-5-(3,5-dimethoxyphenyl)-6-methyl-4-(2,4,6-trifluorophenyl)-pyridazine], the pest or weed control at 40 ppm amounted to 99% with Erysiphe graminis; 100% in assay [1]; 100% with Septoria nodorum; 100% in the assay on Alternaria solani; 99% in the assay with Septoria tritici; 100% with Botrytis cinerea.
For `COc1cc(OC)cc(-c2c(C)nnc(C)c2-c2c(F)cc(F)cc2F)c1` [Compound 9, 4-(3,5-dimethoxyphenyl)-3,6-dimethyl-5-(2,4,6-trifluorophenyl)pyridazine], the pest or weed control at 40 ppm in the assay with Erysiphe graminis was 100%; in assay [1] it was 100%; in the assay on Septoria nodorum, 100%; in the assay on Alternaria solani it was 99%; in the assay on Septoria tritici, 100%; in the assay with Botrytis cinerea it was 100%.
Regarding `COc1cc(OC)cc(-c2c(C)nnc(Cl)c2-c2c(F)cc(OC)cc2F)c1` [Compound 10, 3-chloro-4-(2,6-difluoro-4-methoxyphenyl)-5-(3,5-dimethoxyphenyl)-6-methylpyridazine], the pest or weed control at 40 ppm in the assay with Erysiphe graminis was 99%; in assay [1] it was 100%; with Septoria nodorum, 98%; in the assay on Alternaria solani, 100%; with Septoria tritici it was 99%; in the assay with Botrytis cinerea, 100%.
In the case of `COc1cc(OC)cc(-c2c(C)nnc(C)c2-c2c(F)cc(OC)cc2F)c1` [Compound 11, 4-(2,6-difluoro-4-methoxyphenyl)-5-(3,5-dimethoxyphenyl)-3,6-dimethylpyridazine], the pest or weed control at 40 ppm stood at 100% with Erysiphe graminis; 100% in assay [1]; 99% with Septoria nodorum; 100% with Alternaria solani; 100% in the assay with Septoria tritici; 100% in the assay with Botrytis cinerea.
For `COc1cc(OC)cc(-c2c(Cl)nnc(C)c2-c2c(F)cc(F)cc2F)c1` [Compound 12, 3-chloro-4-(3,5-dimethoxyphenyl)-6-methyl-5-(2,4,6-trifluorophenyl)pyridazine], the pest or weed control at 40 ppm with Erysiphe graminis is 100%; in assay [1], 100%; in the assay with Septoria nodorum it was 99%; with Alternaria solani, 100%; with Septoria tritici it was 99%; with Botrytis cinerea it was 99%.
On to `COc1cc(OC)cc(-c2c(Cl)nnc(C)c2-c2ccc(F)cc2)c1` [Compound 13], for which the “Test F rating (disease control)” value in the assay on Erysiphe graminis is on record as 39%. For the same compound, the “Test E2 rating (disease control)” value in assay [1] is given as 19%. In addition, the “Test C rating (disease control)” value in the assay on Septoria nodorum amounted to 0%. Further, in the assay on Alternaria solani, the “Test B rating (disease control)” value was 0%. In addition, in the assay on Septoria tritici, the “Test D rating (disease control)” value amounted to 45%. The “Test A rating (disease control)” value in the assay on Botrytis cinerea stood at 8%.
As for `COc1cc(OC)cc(-c2c(C)nnc(Cl)c2-c2c(F)ccc(F)c2F)c1` [Compound 15, 3-chloro-5-(3,5-dimethoxyphenyl)-6-methyl-4-(2,3,6-trifluorophenyl)pyridazine], the pest or weed control at 200 ppm in the assay on Erysiphe graminis is 99%; in assay [1], 100%; in the assay with Septoria nodorum, 84%; in the assay with Alternaria solani, 100%; in the assay on Septoria tritici, 99%; in the assay with Botrytis cinerea, 100%.
In the case of `COc1cc(OC)cc(-c2c(C)nnc(C)c2-c2c(F)ccc(F)c2F)c1` [Compound 17, 4-(3,5-dimethoxyphenyl)-3,6-dimethyl-5-(2,3,6-trifluorophenyl)pyridazine], the pest or weed control at 200 ppm with Erysiphe graminis was determined as 100%; in assay [1], 100%; in the assay on Septoria nodorum, 99%; in the assay on Alternaria solani it was 100%; in the assay on Septoria tritici, 99%; with Botrytis cinerea, 100%.
As for `COc1cc(OC)cc(-c2c(C(C)(C)O)nnc(C)c2-c2c(F)cc(F)cc2F)c1` [Compound 21, 4-(3,5-dimethoxyphenyl)-α,α,6-trimethyl-5-(2,4,6-trifluorophenyl)-3-pyridazinemethanol], the pest or weed control at 40 ppm in the assay on Erysiphe graminis came to 100%; in assay [1], 100%; with Septoria nodorum it was 40%; in the assay with Alternaria solani, 99%; with Septoria tritici, 98%; with Botrytis cinerea, 100%.
For `COc1cc(OC)c(Cl)c(-c2c(C)nnc(Cl)c2-c2c(F)cc(F)cc2F)c1` [Compound 23, 3-chloro-5-(2-chloro-3,5-dimethoxyphenyl)-6-methyl-4-(2,4,6-trifluoro-phenyl)pyridazine], the pest or weed control at 40 ppm (with Erysiphe graminis; in assay [1]; in the assay on Septoria nodorum; in the assay with Alternaria solani; with Septoria tritici; with Botrytis cinerea) was 100% throughout.
